Measured values published in patent publication US11541050B2, “Pyrimidine derivatives for the treatment of viral infections” (JANSSEN SCIENCES IRELAND UC, priority 2011, dated 2023).

What was measured:
[1] = target: T1, human TLR8 (wild type sequence) (Homo sapiens, UniProt Q9NR97); assay: TLR8 cellular NFκB-luc reporter assay, wild type TLR8; format: cell-based; parameters: unit not given here; conditions: lowest effective concentration, wild type TLR8 (compounds 74 onward)
T1 construct: expressed in transfected cells; host or cells: HEK293
T1 sequence (Q9NR97 27-1041): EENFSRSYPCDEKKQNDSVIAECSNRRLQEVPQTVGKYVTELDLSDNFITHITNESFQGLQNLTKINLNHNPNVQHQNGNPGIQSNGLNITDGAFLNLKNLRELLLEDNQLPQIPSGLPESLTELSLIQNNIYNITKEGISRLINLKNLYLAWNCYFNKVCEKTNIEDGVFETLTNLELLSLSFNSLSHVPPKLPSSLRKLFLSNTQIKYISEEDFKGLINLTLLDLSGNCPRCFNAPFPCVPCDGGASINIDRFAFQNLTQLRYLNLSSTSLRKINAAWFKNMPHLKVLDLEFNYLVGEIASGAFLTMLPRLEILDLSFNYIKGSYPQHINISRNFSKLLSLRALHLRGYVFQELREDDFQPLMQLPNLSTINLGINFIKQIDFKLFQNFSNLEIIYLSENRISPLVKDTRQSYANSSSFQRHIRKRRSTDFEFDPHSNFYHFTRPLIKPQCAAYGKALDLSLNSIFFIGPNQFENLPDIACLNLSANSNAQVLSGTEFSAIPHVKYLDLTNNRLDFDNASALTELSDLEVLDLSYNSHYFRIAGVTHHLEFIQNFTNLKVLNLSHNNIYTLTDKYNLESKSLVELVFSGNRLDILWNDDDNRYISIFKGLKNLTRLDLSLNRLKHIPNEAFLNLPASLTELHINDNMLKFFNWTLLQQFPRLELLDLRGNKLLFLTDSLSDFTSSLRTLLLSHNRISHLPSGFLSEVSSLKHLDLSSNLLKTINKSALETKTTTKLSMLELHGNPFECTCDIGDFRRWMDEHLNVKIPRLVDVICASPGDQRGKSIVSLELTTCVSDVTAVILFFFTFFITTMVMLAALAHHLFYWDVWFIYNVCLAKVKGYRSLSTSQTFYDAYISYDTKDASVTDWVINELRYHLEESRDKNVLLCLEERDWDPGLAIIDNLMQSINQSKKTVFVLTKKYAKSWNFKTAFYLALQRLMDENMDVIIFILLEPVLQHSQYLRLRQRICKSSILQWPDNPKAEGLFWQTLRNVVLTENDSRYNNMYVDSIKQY
Experimental: (§1) The ability of compounds to activate human TLR7 and/or TLR8 was assessed in a cellular reporter assay using HEK293 cells transiently transfected with a TLR7 or TLR8 expression vector and NFκB-luc reporter construct. In one instance the TLR expression construct expresses the respective wild type sequence or a mutant sequence comprising a deletion in the second leucine-rich repeat of the TLR.
(§2) Briefly, HEK293 cells were grown in culture medium (DMEM supplemented with 10% FCS and 2 mM Glutamine). For transfection of cells in 10 cm dishes, cells were detached with Trypsin-EDTA, transfected with a mix of CMV-TLR7 or TLR8 plasmid (750 ng), NFκB-luc plasmid (375 ng) and a transfection reagent and incubated for 48 hours at 37° C. in a humidified 5% CO2 atmosphere. Transfected cells were then detached with Trypsin-EDTA, washed in PBS and resuspended in medium to a density of 1.67×10^5 cells/mL. Thirty microliters of cells were then dispensed into each well in 384-well plates, where 10 μL of compound in 4% DMSO was already present. Following 6 hours incubation at 37° C., 5% CO2, the luciferase activity was determined by adding 15 μl of Steady Lite Plus substrate (Perkin Elmer) to each well and readout performed on a ViewLux ultraHTS microplate imager (Perkin Elmer). Dose response curves were generated from measurements performed in quadruplicates. Lowest effective concentrations (LEC) values, defined as the concentration that induces an effect which is at least two fold above the standard deviation of the assay, were determined for each compound.

[2] = test system: HCV replicon in Huh-7 luc/neo cells; assay: Suppression of HCV replicon replication by conditioned media from compound-treated PBMC; format: cell-based, HCV type 1 b; conditions: Hepatitis C virus; conditioned media from compound-treated PBMC on Huh-7 luc/neo replicon cells (compounds 74 onward); read-out: PBMC HUH-7 EC50
Experimental: Activation of human TLR7 results in robust production of interferon by plasmacytoid dendritic cells present in human blood. The potential of compounds to induce interferon was evaluated by looking at the antiviral activity in the HCV replicon system upon incubation with conditioned media from peripheral blood mononuclear cells (PBMC). […] The assay utilized the stably transfected cell line Huh-7 luc/neo harboring an RNA encoding a bicistronic expression construct comprising the wild type NS3-NS5B regions of HCV type 1 b translated from an Internal Ribosome Entry Site (IRES) from encephalomyocarditis virus (EMCV), preceded by a reporter gene (Firefly-luciferase) and a selectable marker gene (neoR, neomycine phosphotransferase). The construct is flanked by 5′ and 3′ NTRs (non-translated regions) from HCV type 1 b. Continued culture of the replicon cells in the presence of G418 (neoR) is dependent on the replication of the HCV RNA. The stably transfected replicon cells that replicate HCV RNA autonomously and to high levels, encoding inter alia luciferase, were used for profiling of the conditioned cell culture media.
Briefly, PBMCs were prepared from buffy coats of at least two donors using a standard Ficoll centrifugation protocol. Isolated PBMCs were resuspended in RPMI medium supplemented with 10% human AB serum and 2×10^5 cells/well were dispensed into 384-well plates containing compounds (70 μL total volume). After overnight incubation, 10 μL of supernatant was transferred to 384-well plates containing 2.2×10^3 replicon cells/well in 30 μL (plated the day before). Following 24 hours of incubation, replication was measured by assaying luciferase activity using 40 μL/well Steady Lite Plus substrate (Perkin Elmer) and measured with ViewLux ultraHTS microplate imager (Perkin Elmer). […] Recombinant interferon α-2a (Roferon-A) was used as a standard control compound.

[3] = target: T2, human TLR7 (wild type sequence) (Homo sapiens, UniProt Q9NYK1); assay: TLR7 cellular NFκB-luc reporter assay, wild type TLR7; format: cell-based; parameters: unit not given here; conditions: lowest effective concentration, wild type TLR7 (compounds 74 onward)
T2 construct: expressed in transfected cells; host or cells: HEK293
T2 sequence (Q9NYK1 27-1049): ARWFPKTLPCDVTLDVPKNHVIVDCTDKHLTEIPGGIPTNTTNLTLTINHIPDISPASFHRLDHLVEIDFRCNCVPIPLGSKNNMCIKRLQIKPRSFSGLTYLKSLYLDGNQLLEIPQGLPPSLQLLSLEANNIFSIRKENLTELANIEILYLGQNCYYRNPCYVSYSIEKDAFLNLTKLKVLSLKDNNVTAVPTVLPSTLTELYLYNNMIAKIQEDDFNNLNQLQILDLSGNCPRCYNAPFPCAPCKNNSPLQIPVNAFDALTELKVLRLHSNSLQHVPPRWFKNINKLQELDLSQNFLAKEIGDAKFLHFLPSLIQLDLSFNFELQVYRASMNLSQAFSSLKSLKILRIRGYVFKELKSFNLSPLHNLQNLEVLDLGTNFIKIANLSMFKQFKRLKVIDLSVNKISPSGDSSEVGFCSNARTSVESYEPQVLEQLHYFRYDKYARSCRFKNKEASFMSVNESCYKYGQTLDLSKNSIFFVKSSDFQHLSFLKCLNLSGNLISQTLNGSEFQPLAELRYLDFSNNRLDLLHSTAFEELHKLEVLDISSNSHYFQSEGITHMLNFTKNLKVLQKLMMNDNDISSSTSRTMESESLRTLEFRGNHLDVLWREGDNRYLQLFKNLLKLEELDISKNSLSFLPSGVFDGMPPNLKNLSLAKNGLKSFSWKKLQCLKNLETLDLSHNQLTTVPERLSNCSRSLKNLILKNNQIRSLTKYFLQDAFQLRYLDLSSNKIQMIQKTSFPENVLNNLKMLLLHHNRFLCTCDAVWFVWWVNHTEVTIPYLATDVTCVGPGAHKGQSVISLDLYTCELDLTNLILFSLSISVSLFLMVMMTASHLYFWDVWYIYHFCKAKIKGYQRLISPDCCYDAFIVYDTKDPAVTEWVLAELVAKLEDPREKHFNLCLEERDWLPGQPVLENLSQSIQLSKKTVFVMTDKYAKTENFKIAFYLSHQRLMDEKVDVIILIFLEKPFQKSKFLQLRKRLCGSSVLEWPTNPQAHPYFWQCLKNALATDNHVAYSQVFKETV
Experimental: as §1, §2

Structure (SMILES)	TLR 8 wt LEC [1]	EC50 [2] [nM]	TLR 7 wt LEC [3]
CCCCNc1nc(N)ncc1OCCOc1ccc(C(=O)OC)cc1OC [Compound 132]	>25	634	1.470
CCC[C@@H](CCO)Nc1nc(N)ncc1OCc1ncc(C)c(OC)c1C [Compound 187]	0.178	22	0.074
CCCCNc1nc(N)ncc1OCCCc1ccc2c(c1)OCO2 [Compound 151]	1.860	188	0.431
CCCCNc1nc(N)ncc1OCCOc1ccnc2cc(OC)ccc12 [Compound 141]	0.704	733	4.360
CCCCNc1nc(N)ncc1OCCOc1ccnc2ccccc12 [Compound 128]	3.740	284	2.430
CCCCNc1nc(N)ncc1OCc1ccc(F)cc1 [Compound 95]	2.010	726	2.730
CCC(CO)Nc1nc(N)ncc1OC (stereo not drawn) [Compound 92]	14.570	20200	>25
CCCCNc1nc(N)ncc1OCc1cc2ccccc2n(CCC(C)C)c1=O [Compound 158]	>25	3310	3.080
CCCC(C)Nc1nc(N)ncc1OCc1ccc2ccccc2n1 (stereo not drawn) [Compound 185]	2.340	488	0.743
CCCCNc1nc(N)ncc1OCCCc1ccc(Cl)cc1Cl [Compound 152]	>25	3350	5.410
CCCCNc1nc(N)ncc1OCc1nc(-c2ccccc2)no1 [Compound 155]	4.560	3440	2.660
CCCCNc1nc(N)ncc1OCCOc1cccc(OC)c1OC [Compound 130]	6.560	103	0.676
CCCCNc1nc(N)ncc1OCCOc1ccc(C(F)(F)F)cc1 [Compound 135]	1.970	3190	3.230
CCCCNc1nc(N)ncc1OCc1ccccn1 [Compound 101]	0.597	55	0.277
CCCCNc1nc(N)ncc1OCc1c(C)noc1-c1ccccc1 [Compound 118]	3.710	976	1.670
CCCCNc1nc(N)ncc1OCCCc1ccc(OC)c(OC)c1OC [Compound 164]	23.030	769	0.606
CCCC[C@@H](CCO)Nc1nc(N)ncc1OCc1ccc2ccccc2n1 [Compound 186]	0.680	65	0.122
CCCCNc1nc(N)ncc1OCCOCc1ccccc1 [Compound 83]	1.610	204	0.997
CCCC[C@@H](CO)Nc1nc(N)ncc1OCCCc1ccccc1 [Compound 154]	2.960	3020	3.710
CCCCNc1nc(N)ncc1OCc1cc(OC2CCCC2)c(OC)cn1 [Compound 173]	2.550	86	0.222
CCCCNc1nc(N)ncc1OCc1cc(OC2CCOC2)c(OC)cn1 (stereo not drawn) [Compound 174]	2.610	52	0.447
CCCCNc1nc(N)ncc1OCC1CCCO1 (stereo not drawn) [Compound 100]	6.160	5120	18.950
CCCCNc1nc(N)ncc1OCc1cccc(C(=O)c2ccccc2)c1 [Compound 103]	1.270	725	1.190
CCCCNc1nc(N)ncc1OCc1ccc(C(=O)OC)o1 [Compound 120]	3.910	273	0.649
CCCCNc1nc(N)ncc1OCCOc1ccccc1C(F)(F)F [Compound 131]	>25	806	1.700
